# Measured values: patent US20240148821A1, “PHARMACEUTICAL USE OF CYCLIC PEPTIDE COMPOUND” (CHUGAI SEIYAKU KABUSHIKI KAISHA, priority 2021, published 2024)
# Bridge positions count the residues as written; N and C are the ends. Square brackets hold non-standard residues; d marks the D form. Peptide text beside a SMILES is read from it. * marks the point of attachment. hPhe(3-Cl-4-CF3) = N[C@@H](CCc1ccc(C(F)(F)F)c(Cl)c1)C(=O)O; hPhe(3-F,4-CF3) = N[C@@H](CCc1ccc(C(F)(F)F)c(F)c1)C(=O)O; NMePhe(3-F) = CN[C@@H](Cc1cccc(F)c1)C(=O)O; hPhe(4-F) = N[C@@H](CCc1ccc(F)cc1)C(=O)O; NMeGly(cPent) = CN[C@H](C(=O)O)C1CCCC1; NMeCha = CN[C@@H](CC1CCCCC1)C(=O)O; Hyp = O=C(O)[C@@H]1C[C@@H](O)CN1; NMeChg = CN[C@H](C(=O)O)C1CCCCC1; NMeD = CN[C@@H](CC(=O)O)C(=O)O; Gly(N-CH2CH2OH) = O=C(O)CNCCO; NMeL = CN[C@@H](CC(C)C)C(=O)O; NMeV = CN[C@H](C(=O)O)C(C)C; d(β3hA) = C[C@@H](N)CC(=O)O; NMeS = CN[C@@H](CO)C(=O)O; dPip = O=C(O)[C@H]1CCCCN1; NMeA = CN[C@@H](C)C(=O)O; Piperidide = C1CCN(*)CC1; dNMeA = CN[C@H](C)C(=O)O; Ac5c = NC1(C(=O)O)CCCC1; Aze = O=C(O)[C@@H]1CCN1; CH2CMe2OH = CC(C)(O)C*; NBuGly = CCCCNCC(=O)O; Aib = CC(C)(N)C(=O)O; Cyclopropyl = C1CC1*; Isopentyl = CC(C)CC*; Sar = CNCC(=O)O
# Target: protein-protein interaction between Kras and SOS1 (biotin-tagged human Kras loaded with GDP, His-tagged human SOS1) (Homo sapiens (Human), UniProt P01116, G12D)
# Assay: Protein-protein interaction inhibition between Kras and SOS1 (KrasG12D-SOS PPI) using AlphaScreen;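 also: kras produced in E. coli, Ni-coupled donor beads and streptavidin acceptor beads, excitation 680 nm with emission detected at 520–620 nm via singlet oxygen transfer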
# Format: biochemical
# Conditions: AlphaScreen; biotin-tagged human Kras loaded with GDP, His-tagged human SOS1; read-out: KRAS G12D-SOS PPI IC50
row,SMILES,IC50 [nM]
1,"CC[C@H](C)[C@@H]1NC(=O)[C@H](CC(C)C)N(C)C(=O)C[C@@H](C(=O)N2CCCCC2)N(C)C(=O)[C@H](C2CCCC2)N(C)C(=O)C2(CCCC2)NC(=O)[C@@H]2CCCN2C(=O)[C@H](CCc2ccc(C(F)(F)F)c(F)c2)NC(=O)CN(C)C(=O)[C@H](CC2CCCCC2)N(C)C(=O)[C@@H]2CCN2C(=O)[C@H](C)N(C)C1=O [Compound 563] ([NMeL]I[NMeA][Aze][NMeCha][Sar][hPhe(3-F,4-CF3)]P[Ac5c][NMeGly(cPent)][NMeD]-Piperidide; lactam N-11)",1.1
2,CC[C@H](C)[C@@H]1NC(=O)[C@H](C)N(C)C(=O)C[C@@H](C(=O)N2CCCCC2)N(C)C(=O)[C@H](C(C)C)N(C)C(=O)C2(CCCC2)NC(=O)[C@@H]2CCCN2C(=O)[C@H](CCc2ccc(C(F)(F)F)c(Cl)c2)NC(=O)[C@H]2CCCCN2C(=O)[C@H](CC2CCCCC2)N(C)C(=O)CN(C)C(=O)CN(C)C1=O [Compound 1118] ([NMeA]I[Sar][Sar][NMeCha][dPip][hPhe(3-Cl-4-CF3)]P[Ac5c][NMeV][NMeD]-Piperidide; lactam N-11),200
3,CC[C@H](C)[C@@H]1NC(=O)[C@H](CC(C)C)N(C)C(=O)C[C@@H](C(=O)N2CCCCC2)N(C)C(=O)[C@H](C(C)C)N(C)C(=O)C2(CCCC2)NC(=O)[C@@H]2CCCN2C(=O)[C@H](CCc2ccc(C(F)(F)F)c(Cl)c2)NC(=O)CN(C)C(=O)[C@H](CC2CCCCC2)N(C)C(=O)[C@@H]2CCN2C(=O)[C@H](COC2CC2)N(C)C1=O [Compound 676] ([NMeL]I[NMeS](Cyclopropyl)[Aze][NMeCha][Sar][hPhe(3-Cl-4-CF3)]P[Ac5c][NMeV][NMeD]-Piperidide; lactam N-11),31
4,"CC[C@H](C)[C@@H]1NC(=O)[C@H](CC(C)C)N(C)C(=O)C[C@@H](C(=O)N2CCCCC2)N(C)C(=O)[C@H](C2CCCCC2)N(C)C(=O)C2(CCCC2)NC(=O)CN(CCO)C(=O)[C@H](CCc2ccc(C(F)(F)F)c(Cl)c2)NC(=O)CN(C)C(=O)[C@H](CC2CCCCC2)N(C)C(=O)CN(C)C(=O)CN(C)C1=O [Compound 2037, (11S,17S,26S,29S,33S,36S)-11-[2-[3-chloro-4-(trifluoromethyl)phenyl]ethyl]-36-cyclohexyl-17-(cyclohexylmethyl)-9-(2-hydroxyethyl)-29-isobutyl-15,18,21,24,30,34,37-heptamethyl-26-[(1S)-1-methylpropyl]-33-(piperidine-1-carbonyl)-6,9,12,15,18,21,24,27,30,34,37-undecazaspiro[4.33]octatriacontane-7,10,13,16,19,22,25,28,31,35,38-undecone] ([NMeL]I[Sar][Sar][NMeCha][Sar][hPhe(3-Cl-4-CF3)][Gly(N-CH2CH2OH)][Ac5c][NMeChg][NMeD]-Piperidide; lactam N-11)",0.58
5,CC[C@H](C)[C@@H]1NC(=O)[C@H](CC(C)C)N(C)C(=O)C[C@@H](C(=O)N2CCCCC2)N(C)C(=O)[C@H](C2CCCCC2)N(C)C(=O)C2(CCCC2)NC(=O)[C@H](C)N(C)C(=O)[C@H](CCc2ccc(C(F)(F)F)c(Cl)c2)NC(=O)CN(C)C(=O)[C@H](CC2CCCCC2)N(C)C(=O)CN(C)C(=O)CN(C)C1=O [Compound 294] ([NMeL]I[Sar][Sar][NMeCha][Sar][hPhe(3-Cl-4-CF3)][NMeA][Ac5c][NMeChg][NMeD]-Piperidide; lactam N-11),1.4
6,"CC[C@H](C)[C@@H]1NC(=O)[C@H](CC(C)C)N(C)C(=O)C[C@@H](C)NC(=O)[C@H](C(C)C)N(C)C(=O)C2(CCCC2)NC(=O)[C@@H]2CCCN2C(=O)[C@H](CCc2ccc(C(F)(F)F)c(Cl)c2)NC(=O)CN(C)C(=O)[C@H](CC2CCCCC2)N(C)C(=O)[C@@H]2CCN2C(=O)[C@H](C)N(C)C1=O [Compound 488, (5S,8S,11S,15R,18S,23aS,29S,35S,37aS)-8-((S)-sec-butyl)-29-(3-chloro-4-(trifluoromethyl)phenethyl)-35-(cyclohexylmethyl)-11-isobutyl-18-isopropyl-5,6,12,15,19,33,36-heptamethyldocosahydro-2H,4H-spiro[azeto[2,1-u]pyrrolo[2,1-i][1,4,7,10,13,16,19,22,25,28,31]undecaazacyclotetratriacontine-21,1′-cyclopentan]-4,7,10,13,17,20,23,28,31,34,37(14H,22H)-undecaone] (cyclo([Ac5c][NMeV][d(β3hA)][NMeL]I[NMeA][Aze][NMeCha][Sar][hPhe(3-Cl-4-CF3)]P))",29
7,CC[C@H](C)[C@@H]1NC(=O)[C@H](C)N(C)C(=O)C[C@@H](C)NC(=O)[C@H](C2CCCC2)N(C)C(=O)C2(CCCC2)NC(=O)[C@@H]2CCCN2C(=O)[C@H](CCc2ccc(C(F)(F)F)c(Cl)c2)NC(=O)[C@@H](C)N(C)C(=O)[C@H](Cc2cccc(F)c2)N(C)C(=O)[C@@H]2CCN2C(=O)[C@H](C)N(C)C1=O [Compound 795] (cyclo([Ac5c][NMeGly(cPent)][d(β3hA)][NMeA]I[NMeA][Aze][NMePhe(3-F)][dNMeA][hPhe(3-Cl-4-CF3)]P)),72
8,CC[C@H](C)[C@@H]1NC(=O)[C@H](C)N(C)C(=O)C[C@@H](C(=O)N2CCCCC2)N(C)C(=O)[C@H](C(C)C)N(C)C(=O)C2(CCCC2)NC(=O)[C@@H]2CCCN2C(=O)[C@H](CCc2ccc(F)cc2)NC(=O)CN(C)C(=O)[C@H](CC2CCCCC2)N(C)C(=O)[C@@H]2CCN2C(=O)[C@H](C)N(C)C1=O [Compound 860] ([NMeA]I[NMeA][Aze][NMeCha][Sar][hPhe(4-F)]P[Ac5c][NMeV][NMeD]-Piperidide; lactam N-11),210
9,"CC[C@H](C)[C@@H]1NC(=O)[C@H](CC(C)C)N(C)C(=O)C[C@@H](C(=O)N2CCCCC2)N(C)C(=O)[C@H](C2CCCCC2)N(C)C(=O)C2(CCCC2)NC(=O)[C@@H]2C[C@@H](O)CN2C(=O)[C@H](CCc2ccc(C(F)(F)F)c(Cl)c2)NC(=O)CN(C)C(=O)[C@H](CC2CCCCC2)N(C)C(=O)CN(C)C(=O)CN(C)C1=O [Compound 1376, (3S,9S,18S,21S,25S,28S,34S,36R)-3-[2-[3-chloro-4-(trifluoromethyl)phenyl]ethyl]-28-cyclohexyl-9-(cyclohexylmethyl)-36-hydroxy-21-isobutyl-7,10,13,16,22,26,29-heptamethyl-18-[(1S)-1-methylpropyl]-25-(piperidine-1-carbonyl)spiro[1,4,7,10,13,16,19,22,26,29,32-undecazabicyclo[32.3.0]heptatriacontane-31,1′-cyclopentane]-2,5,8,11,14,17,20,23,27,30,33-undecone] ([NMeL]I[Sar][Sar][NMeCha][Sar][hPhe(3-Cl-4-CF3)][Hyp][Ac5c][NMeChg][NMeD]-Piperidide; lactam N-11)",0.71
10,CCCCN1CC(=O)N(C)CC(=O)N(C)[C@@H](COCCC(C)C)C(=O)N(C)CC(=O)N[C@@H](CCc2ccc(C(F)(F)F)c(Cl)c2)C(=O)N[C@@H](COCC(C)(C)O)C(=O)NC(C)(C)C(=O)N(C)[C@@H](CC(C)C)C(=O)N[C@H](C)CC(=O)N(C)[C@@H](CC(C)C)C(=O)N[C@@H]([C@@H](C)CC)C1=O [Compound 1473] (cyclo([Aib][NMeL][d(β3hA)][NMeL]I[NBuGly][Sar][NMeS](Isopentyl)[Sar][hPhe(3-Cl-4-CF3)]S(CH2CMe2OH))),390
